{"source": "patent US20260262638A1", "about": "“AGRICULTURAL COMPOSITION” (priority 2022, published 2026)", "tested_on": "nematodes", "assay": "Nematicide laboratory bioassay in ELISA plates, nematode mortality 24 h after treatment", "format": "in vivo", "method": "Bioassays were designed to determine the efficacy of tested formulations, and included the following steps: • 1. nematode extraction from carrot disks using the mesh extraction method; • 2. counting of extracted nematodes in a sample of 100 μL of water; • 3. preferably, nematode count in such a sample is between 40-80 nematodes; • 4. determining efficacy in ELISA plates; • 5. preparing a stock solution that is 10 times more diluted than the main formulation for all treatments; • 6. for treatments tested at 5% or 1.5%, aliquots of 50 μL or 15 μL of the corresponding stock solution were introduced to a well, respectively. Volume was completed with 50 μL of the nematode extract, except for treatments tested at 1.5%, an additional 35 μL of distilled water was introduced to reach a total volume of 100 μL. Content of the well was sufficiently mixed with a pipette, to ensure proper distribution of both nematodes and treatment components; • 7. performing at least 6 replicates of every treatment. The flask containing the nematode colony was mixed by manual shaking every time before nematodes were introduced to the well. This way we ensure a somewhat homogenous nematode count and avoid nematodes settling at the bottom of the flask; • 8. keeping the whole ELISA plate in dark conditions for 24 hours after introduction of the treatment; and • 9. assessing nematode mortality 24 hours after treatment under stereoscope. Nematodes that were moving were considered alive. Nematodes that were not moving were poked with a fine brush, if they respond to the poking with slight movements, they were considered alive. If not, they were considered dead.\nThe only validity criterium was that nematode mortality in the negative controls should not exceed 10%.\nThe raw mortality data was analyzed using RStudio (version 1.4.1717). The data sets were subjected to Shapiro-Wilk test for normality (α=0.05). Data was not normally distributed; therefore, a Kruskal-Wallis test was applied. Where there was significance, a Wilcoxon rank sum t-test was performed for pairwise comparisons between treatment groups.", "key": {"[1]": {"settings": "mean over replicates, 24 h, tested dose per Table 2"}, "[2]": {"settings": "sum over replicates, 24 h, tested dose per Table 2"}}, "note": "“And” between values parts separate entries of the source, which are not always exact repeats. Equal entries are not always repeated."}
{"smiles": "CNC(=O)O/N=C(\\SC)C(=O)N(C)C", "note": "[Oxamyl]", "values": [{"measurement": "mean alive", "setting": "[1]", "value": 20.50}, {"measurement": "mean dead", "setting": "[1]", "value": 22.17}, {"measurement": "alive", "setting": "nematodes counted alive per replicate well, 24 h after treatment, tested dose per Table 2", "value": "22 and 20 and 25 and 17 and 24 and 18 and 7 and 27 and 5 and 34 and 21 and 26"}, {"measurement": "Dead", "setting": "nematodes counted dead per replicate well, 24 h after treatment, tested dose per Table 2 (5%, 1.5% or 1% w/v)", "value": "24 and 34 and 29 and 20 and 31 and 39 and 15 and 4 and 18 and 5 and 22 and 25"}, {"measurement": "total alive", "setting": "[2]", "value": 246}, {"measurement": "total dead", "setting": "[2]", "value": 266}, {"measurement": "Mortality (%) 24 h post exposure", "setting": "tested dose per Table 2 (5%, 1.5% or 1% w/v)", "value": 50.76, "unit": "%"}]}
